{"source": "PubChem BioAssay AID1552", "about": "(Sanford-Burnham Center for Chemical Genomics, 2009)", "note": "Active and inactive are the calls of the source. How the calls were made is not given here.", "data": [{"biological_target": "Ubiquitin-conjugating enzyme E2 N (Homo sapiens) (UniProt P61088)", "sequence (P61088 whole entry, looked up)": "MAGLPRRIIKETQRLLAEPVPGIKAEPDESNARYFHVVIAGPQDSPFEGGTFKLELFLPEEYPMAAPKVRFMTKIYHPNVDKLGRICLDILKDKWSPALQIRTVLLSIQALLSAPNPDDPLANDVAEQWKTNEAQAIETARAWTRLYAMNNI", "assay": "NMR detection of UBE2N ligand binding – biophysical, purified protein (AID 1552)", "conditions": "NMR binding to purified UBE2N", "values": [{"smiles": "NC(=O)CSc1ccc(-c2ccco2)nn1", "Kd": "> 4 mM (inactive)"}, {"smiles": "Nc1nc(-c2nc3ccccc3[nH]2)cs1", "Kd": "> 4 mM (inactive)"}, {"smiles": "Cc1nc(CC(=O)O)c(-c2ccccc2)s1", "Kd": "> 4 mM (inactive)"}, {"smiles": "c1ccc(-c2noc(-c3ccco3)n2)nc1", "Kd": "> 4 mM (inactive)"}, {"smiles": "S=c1nc(Cc2ccccc2)[nH][nH]1", "Kd": "> 4 mM (inactive)"}, {"smiles": "COc1cc2c(cc1OC)-c1cc3ccc(OC)c(OC)c3c[n+]1CC2", "Kd": "> 4 mM (inactive)"}, {"smiles": "O=C(O)c1cc(O)c2c(c1)C(=O)c1cc(O)cc(O)c1C2=O", "Kd": "> 4 mM (inactive)"}, {"smiles": "CC1(C)O[C@H]2CC(=O)OC[C@]23[C@H]2CC[C@@]4(C)[C@H](c5ccoc5)OC(=O)[C@H]5O[C@]54[C@]2(C)C(=O)C[C@@H]13", "Kd": "> 4 mM (inactive)"}, {"smiles": "Nc1ccc(O)cn1", "Kd": "> 4 mM (inactive)"}, {"smiles": "C=CCSc1[nH]c(=O)cc(C)c1C(N)=O", "Kd": "> 4 mM (inactive)"}, {"smiles": "Cc1ccc2c(c1)CCCN2C(=O)c1c(C)noc1C", "Kd": "> 4 mM (inactive)"}, {"smiles": "NC(=O)c1cccnc1Oc1ccccc1", "Kd": "> 4 mM (inactive)"}, {"smiles": "NC(=O)c1sc2ccccc2c1Cl", "Kd": "> 4 mM (inactive)"}, {"smiles": "Cc1cc(C)c2nncn2n1", "Kd": "> 4 mM (inactive)"}, {"smiles": "Cn1c2ccccc2n2c(=S)[nH]nc12", "Kd": "> 4 mM (inactive)"}, {"smiles": "S=C(NC1CC1)NN1CCOCC1", "Kd": "> 4 mM (inactive)"}, {"smiles": "CC(=O)Oc1c2c(c(CC=C(C)C)c3c1C(=O)C1=C[C@@H]4CC5C(C)(C)OC(C/C=C(\\C)C(=O)O)(C4=O)[C@@]15O3)OC(C)(CCC=C(C)C)C=C2", "note": "(stereo not given in full)", "Kd": "> 4 mM (inactive)"}, {"smiles": "CNC(=O)c1cc(S(=O)(=O)N(C)C)ccc1Cl", "Kd": "> 4 mM (inactive)"}, {"smiles": "COc1ccc(-c2cc(=O)c3ccccc3o2)cc1OC", "Kd": "> 4 mM (inactive)"}, {"smiles": "CSCCNC(C)=O", "Kd": "> 4 mM (inactive)"}, {"smiles": "CC(=O)c1c(C)nc(-c2ccc(Cl)cc2Cl)n1O", "Kd": "> 4 mM (inactive)"}, {"smiles": "COCC(=O)OCn1nnc2ccccc2c1=O", "Kd": "> 4 mM (inactive)"}, {"smiles": "COc1cc(OC)c2c(=O)c(-c3ccccc3)coc2c1", "Kd": "> 4 mM (inactive)"}, {"smiles": "OC(c1ccccc1)c1ccccn1", "note": "(stereo not given)", "Kd": "> 4 mM (inactive)"}, {"smiles": "CNC(=O)c1ccccc1N", "Kd": "> 4 mM (inactive)"}, {"smiles": "O=C(Nc1ccccc1)c1cccc(N2C(=O)CCC2=O)c1", "Kd": "> 4 mM (inactive)"}, {"smiles": "OCc1csc(-c2ccccc2)n1", "Kd": "> 4 mM (inactive)"}, {"smiles": "C[C@H]1[C@H]2CCC3C4CC=C5C[C@@H](N(C)C)CC[C@]5(C)C4CC[C@@]32CN1C", "note": "(stereo not given in full)", "Kd": "> 4 mM (inactive)"}, {"smiles": "OCc1sccc1-n1cccc1", "Kd": "> 4 mM (inactive)"}, {"smiles": "COC(=O)[C@]1(C)CC[C@]2(C)CC[C@]3(C)C4=CCc5c(cc(O)c(O)c5C)[C@]4(C)CC[C@@]3(C)C2C1", "note": "(stereo not given in full)", "Kd": "> 4 mM (inactive)"}, {"smiles": "COc1ccc(C)cc1S(=O)(=O)N1CCCCC1", "Kd": "> 4 mM (inactive)"}, {"smiles": "C[C@@H]1CC[C@@]23CCC4(C)[C@@](C=CC5[C@@]6(C)CC[C@H](O)C(C)(C)C6CC[C@]54C)(OC2=O)C3[C@H]1C", "note": "(stereo not given in full)", "Kd": "> 4 mM (inactive)"}, {"smiles": "CC(C)C(C)/C=C/C(C)C1CCC2C3=CC=C4CC(O)CCC4(C)C3CCC21C", "note": "(stereo not given)", "Kd": "> 4 mM (inactive)"}, {"smiles": "Cc1cc(C(=O)NCc2cccnc2)cs1", "Kd": "> 4 mM (inactive)"}, {"smiles": "CCN1CCc2c(sc(N)c2C#N)C1", "Kd": "> 4 mM (inactive)"}, {"smiles": "CC(=O)Nc1ccc2c(c1)CCC2=O", "Kd": "> 4 mM (inactive)"}, {"smiles": "NC(N)=NOCC[C@H](N)C(=O)O", "Kd": "> 4 mM (inactive)"}, {"smiles": "COc1cc2c(cc1OC)[C@@H]1C(=O)c3ccc(OC)c(CC=C(C)C)c3O[C@@H]1CO2", "Kd": "> 4 mM (inactive)"}, {"smiles": "COc1c2c(cc3occ(-c4ccc5c(c4)OCO5)c(=O)c13)OC(C)(C)C=C2", "Kd": "> 4 mM (inactive)"}, {"smiles": "O=C1CCC(=O)N1CN1CCOCC1", "Kd": "> 4 mM (inactive)"}, {"smiles": "NCCc1nc2ccccc2[nH]1", "Kd": "> 4 mM (inactive)"}, {"smiles": "CC(=O)c1ccc(Cc2cnc(N)s2)cc1", "Kd": "> 4 mM (inactive)"}, {"smiles": "N#Cc1cnn2c(C(F)(F)F)cc(C(F)(F)F)nc12", "Kd": "> 4 mM (inactive)"}, {"smiles": "C(=N\\c1nccs1)/c1cccnc1", "Kd": "> 4 mM (inactive)"}, {"smiles": "Nc1nc2ccc(N3CCOCC3)cc2s1", "Kd": "> 4 mM (inactive)"}]}]}
